According to paper PMC5218480 (PLoS ONE, 2017):

Tested on: MV-4-11 cells
Experiment: Gene expression microarray analysis (Affymetrix PrimeView) and GSEA
Assay type: cell-based, human
Set-up: RFU PODN (11730768_x_at) / Fold change /veh PODN (11730768_x_at) / RFU LINC00158 (11744669_a_at) / Fold change /veh LINC00158 (11744669_a_at) / RFU DUSP10 (11751237_a_at) / Fold change /veh DUSP10 (11751237_a_at) / RFU ID3 (11757404_x_at) / Fold change /veh ID3 (11757404_x_at) / RFU PLEKHG5 (11737974_s_at) / Fold change /veh PLEKHG5 (11737974_s_at) / RFU LRRC4B (11730491_at) / Fold change /veh LRRC4B (11730491_at) / RFU GIMAP4 (11747438_a_at) / Fold change /veh GIMAP4 (11747438_a_at) / RFU KRT8 (11758183_x_at) / Fold change /veh KRT8 (11758183_x_at) / RFU CNN1 (11734310_a_at) / Fold change /veh CNN1 (11734310_a_at) / RFU VPS37D (11726825_at) / Fold change /veh VPS37D (11726825_at) / RFU C10orf10 (11716522_x_at) / Fold change /veh C10orf10 (11716522_x_at) / RFU KIR2DL2 /// KIR2DL4 /// KIR2DL5A /// KIR2DL5B /// KIR2DS1 /// KIR2DS2 /// KIR2DS3 /// KIR2DS4 /// KIR3DL3 /// KIR3DL3 /// KIR3DS1 (11738374_at) / Fold change /veh KIR2DL2 /// KIR2DL4 /// KIR2DL5A /// KIR2DL5B /// KIR2DS1 /// KIR2DS2 /// KIR2DS3 /// KIR2DS4 /// KIR3DL3 /// KIR3DL3 /// KIR3DS1 (11738374_at) / RFU C1QL1 (11718748_at) / Fold change /veh C1QL1 (11718748_at) / RFU TMPRSS4 (11747572_a_at) / Fold change /veh TMPRSS4 (11747572_a_at) / RFU HAMP (11756126_x_at) / Fold change /veh HAMP (11756126_x_at) / RFU RNFT2 (11725882_a_at) / Fold change /veh RNFT2 (11725882_a_at) / RFU NR4A2 (11747474_a_at) / Fold change /veh NR4A2 (11747474_a_at) / RFU ABCC12 (11746883_a_at) / Fold change /veh ABCC12 (11746883_a_at) / RFU TMEM136 (11760407_x_at) / Fold change /veh TMEM136 (11760407_x_at) / RFU CLDN22 /// WWC2 (11732394_at) / Fold change /veh CLDN22 /// WWC2 (11732394_at) / RFU HLA-DPB1 (11760878_x_at) / Fold change /veh HLA-DPB1 (11760878_x_at) / RFU SPINT1 (11716480_a_at) / Fold change /veh SPINT1 (11716480_a_at) / RFU GAP43 (11754022_s_at) / Fold change /veh GAP43 (11754022_s_at) / RFU A4GNT (11735810_at) / Fold change /veh A4GNT (11735810_at) / RFU PRB3 (11715151_x_at) / Fold change /veh PRB3 (11715151_x_at) / RFU TUBB4B (11761932_at) / Fold change /veh TUBB4B (11761932_at) / RFU CAPN14 (11732068_a_at) / Fold change /veh CAPN14 (11732068_a_at) / RFU TMCC2 (11721928_a_at) / Fold change /veh TMCC2 (11721928_a_at) / RFU IRGQ (11745062_a_at) / Fold change /veh IRGQ (11745062_a_at) / RFU FAM174B (11720279_a_at) / Fold change /veh FAM174B (11720279_a_at) / RFU TMPRSS4 (11748680_a_at) / Fold change /veh TMPRSS4 (11748680_a_at) / RFU FAM212B (11763350_a_at) / Fold change /veh FAM212B (11763350_a_at) / RFU PLEKHG5 (11743358_a_at) / Fold change /veh PLEKHG5 (11743358_a_at) / RFU ZSCAN30 (11745921_a_at) / Fold change /veh ZSCAN30 (11745921_a_at) / RFU CMKLR1 (11741424_a_at) / Fold change /veh CMKLR1 (11741424_a_at) / RFU LOC101060620 /// MAPK8IP1 (11723275_at) / Fold change /veh LOC101060620 /// MAPK8IP1 (11723275_at) / RFU SPTSSB (11747773_x_at) / Fold change /veh SPTSSB (11747773_x_at) / RFU PRSS12 (11739890_at) / Fold change /veh PRSS12 (11739890_at) / RFU BIN1 (11741810_x_at) / Fold change /veh BIN1 (11741810_x_at) / RFU WNT11 (11732464_a_at) / Fold change /veh WNT11 (11732464_a_at) / RFU C10orf10 (11716521_a_at) / Fold change /veh C10orf10 (11716521_a_at) / RFU C5orf56 (11738089_at) / Fold change /veh C5orf56 (11738089_at) / RFU CYB561 (11721691_x_at) / Fold change /veh CYB561 (11721691_x_at) / RFU ANKRD19P (11752326_a_at) / Fold change /veh ANKRD19P (11752326_a_at) / RFU OR2T12 /// OR2T33 /// OR2T8 (11738714_s_at) / Fold change /veh OR2T12 /// OR2T33 /// OR2T8 (11738714_s_at) / RFU VCAN (11748164_a_at) / Fold change /veh VCAN (11748164_a_at) / RFU JSRP1 (11732532_at) / Fold change /veh JSRP1 (11732532_at) / RFU KRTAP10-11 (11738290_x_at) / Fold change /veh KRTAP10-11 (11738290_x_at) / RFU MYO3A (11730013_a_at) / Fold change /veh MYO3A (11730013_a_at) / RFU EBF3 (11725865_a_at) / Fold change /veh EBF3 (11725865_a_at) / RFU CAMK2N1 (11719241_x_at) / Fold change /veh CAMK2N1 (11719241_x_at) / RFU C5orf56 (11738088_a_at) / Fold change /veh C5orf56 (11738088_a_at) / RFU OLFML3 (11715873_a_at) / Fold change /veh OLFML3 (11715873_a_at) / RFU LOC100653217 /// NTM (11731650_a_at) / Fold change /veh LOC100653217 /// NTM (11731650_a_at) / RFU MAPK11 (11762145_a_at) / Fold change /veh MAPK11 (11762145_a_at) / RFU FIZ1 (11724087_x_at) / Fold change /veh FIZ1 (11724087_x_at) / RFU OASL (11726364_x_at) / Fold change /veh OASL (11726364_x_at) / RFU SOX15 (11748057_x_at) / Fold change /veh SOX15 (11748057_x_at) / RFU CD79A (11719716_a_at) / Fold change /veh CD79A (11719716_a_at) / RFU HIST1H1D (11736915_at) / Fold change /veh HIST1H1D (11736915_at) / RFU CASKIN2 (11723855_a_at) / Fold change /veh CASKIN2 (11723855_a_at) / RFU LOC730098 (11760151_x_at) / Fold change /veh LOC730098 (11760151_x_at) / RFU OR4N2 (11742367_at) / Fold change /veh OR4N2 (11742367_at) / RFU PRRT2 (11749266_a_at) / Fold change /veh PRRT2 (11749266_a_at) / RFU SNX32 (11753110_a_at) / Fold change /veh SNX32 (11753110_a_at) / RFU CDHR5 (11726645_a_at) / Fold change /veh CDHR5 (11726645_a_at) / RFU RCAN1 (11760418_a_at) / Fold change /veh RCAN1 (11760418_a_at) / RFU FAM167A (11723789_a_at) / Fold change /veh FAM167A (11723789_a_at) / RFU FAM26E (11764081_at) / Fold change /veh FAM26E (11764081_at) / RFU ISYNA1 (11749810_s_at) / Fold change /veh ISYNA1 (11749810_s_at) / RFU ACY1 (11761880_at) / Fold change /veh ACY1 (11761880_at) / RFU 11764098_at / Fold change /veh 11764098_at / RFU SAMD14 (11745864_x_at) / Fold change /veh SAMD14 (11745864_x_at) / RFU NPB (11741838_a_at) / Fold change /veh NPB (11741838_a_at) / RFU TMPRSS6 (11731388_a_at) / Fold change /veh TMPRSS6 (11731388_a_at) / RFU KRTAP10-2 (11738614_at) / Fold change /veh KRTAP10-2 (11738614_at) / RFU ARHGAP8 /// PRR5-ARHGAP8 (11727945_x_at) / Fold change /veh ARHGAP8 /// PRR5-ARHGAP8 (11727945_x_at) / RFU KRTAP5-7 /// NADSYN1 (11734609_at) / Fold change /veh KRTAP5-7 /// NADSYN1 (11734609_at) / RFU RASL12 (11751679_a_at) / Fold change /veh RASL12 (11751679_a_at) / RFU CDKN2B (11736163_a_at) / Fold change /veh CDKN2B (11736163_a_at) / RFU PRF1 (11729649_at) / Fold change /veh PRF1 (11729649_at) / RFU, ZNF638 /// ZNF638-IT1 / Fold change vs veh, ZNF638 /// ZNF638-IT1 / RFU, PANK3 / Fold change vs veh, PANK3 / RFU, SH3YL1 / Fold change vs veh, SH3YL1 / RFU, ZEB2 / Fold change vs veh, ZEB2 / RFU, NRIP1 / Fold change vs veh, NRIP1 / RFU, PTTG1IP / Fold change vs veh, PTTG1IP / RFU, CAPN2 / Fold change vs veh, CAPN2 / RFU, MED14 / Fold change vs veh, MED14 / RFU, SNORA58 / Fold change vs veh, SNORA58 / RFU, C1orf63 / Fold change vs veh, C1orf63 / RFU, LRRFIP1 / Fold change vs veh, LRRFIP1 / RFU, NDUFAF7 / Fold change vs veh, NDUFAF7 / RFU, SLC12A2 / Fold change vs veh, SLC12A2 / RFU, IBTK / Fold change vs veh, IBTK / RFU, ESF1 / Fold change vs veh, ESF1 / Fold change vs veh, TMEM50B / RFU, TAOK1 / Fold change vs veh, TAOK1 / RFU, ACBD3 / Fold change vs veh, ACBD3 / RFU, TMA16 / Fold change vs veh, TMA16 / RFU, RWDD3 / Fold change vs veh, RWDD3 / RFU, BCAT1 / Fold change vs veh, BCAT1 / RFU, EDEM3 / Fold change vs veh, EDEM3 / RFU, TMEM33 / Fold change vs veh, TMEM33 / RFU, WDR75 / Fold change vs veh, WDR75 / RFU, AHCTF1 / Fold change vs veh, AHCTF1 / RFU, TFRC / Fold change vs veh, TFRC / RFU, ZDHHC17 / Fold change vs veh, ZDHHC17 / RFU, NOM1 / Fold change vs veh, NOM1 / RFU, ARL8B / Fold change vs veh, ARL8B / RFU, ZBTB11 / Fold change vs veh, ZBTB11 / RFU, TAMM41 / Fold change vs veh, TAMM41 / RFU, KIAA1704 /// LOC100996395 / Fold change vs veh, KIAA1704 /// LOC100996395 / RFU, ING1 / Fold change vs veh, ING1 / RFU, TRMT61B / Fold change vs veh, TRMT61B / RFU, FUBP3 / Fold change vs veh, FUBP3 / RFU, TP53 / Fold change vs veh, TP53 / RFU, TNKS2 / Fold change vs veh, TNKS2 / RFU, ZFP14 / Fold change vs veh, ZFP14 / RFU, ACTR2 / Fold change vs veh, ACTR2 / RFU, PPP3R1 / Fold change vs veh, PPP3R1 / RFU, PIK3R1 / Fold change vs veh, PIK3R1 / RFU, HNRNPA1 / Fold change vs veh, HNRNPA1 / RFU, RNF170 / Fold change vs veh, RNF170 / RFU, ZNF28 / Fold change vs veh, ZNF28 / RFU, RNGTT / Fold change vs veh, RNGTT / RFU, OGT / Fold change vs veh, OGT / RFU, BRD1 / Fold change vs veh, BRD1 / RFU, MARS / Fold change vs veh, MARS / RFU, ZNF655 / Fold change vs veh, ZNF655 / RFU, FAHD1 / Fold change vs veh, FAHD1 / RFU, BDP1 / Fold change vs veh, BDP1 / RFU, LRRCC1 / Fold change vs veh, LRRCC1 / RFU, ARID1A / Fold change vs veh, ARID1A / RFU, ZNF146 / Fold change vs veh, ZNF146 / RFU, ZNF330 / Fold change vs veh, ZNF330 / RFU, GPN3 / Fold change vs veh, GPN3 / RFU, C9orf123 / Fold change vs veh, C9orf123 / RFU, N4BP2L2 / Fold change vs veh, N4BP2L2 / RFU, ARFIP1 / Fold change vs veh, ARFIP1 / RFU, FAM179B / Fold change vs veh, FAM179B / RFU, BCL10 / Fold change vs veh, BCL10 / RFU, UHRF1BP1L / Fold change vs veh, UHRF1BP1L / RFU, BET1 / Fold change vs veh, BET1 / RFU, CNOT2 / Fold change vs veh, CNOT2 / RFU, ZNF268 / Fold change vs veh, ZNF268 / Fold change vs veh, ZNF507 / RFU, DGCR2 / Fold change vs veh, DGCR2 / RFU, WDSUB1 / Fold change vs veh, WDSUB1 / Fold change vs veh, HSP90B1 /// MIR3652 / RFU, ADSS / Fold change vs veh, ADSS / RFU, GK / Fold change vs veh, GK / RFU, ZNF148 / Fold change vs veh, ZNF148 / RFU, TAF9 / Fold change vs veh, TAF9 / RFU, SLC1A5 / Fold change vs veh, SLC1A5 / RFU, SLMO2 / Fold change vs veh, SLMO2 / RFU, ABCC4 / Fold change vs veh, ABCC4 / RFU, LOC101060439 /// RAP1B / Fold change vs veh, LOC101060439 /// RAP1B / RFU, RFX7 / Fold change vs veh, RFX7 / RFU, GTPBP10 / Fold change vs veh, GTPBP10 / RFU, CNEP1R1 / Fold change vs veh, CNEP1R1 / RFU, BIVM-ERCC5 /// ERCC5 / Fold change vs veh, BIVM-ERCC5 /// ERCC5 / RFU, ILF3 / Fold change vs veh, ILF3 / RFU 11762660_at / Fold change /veh 11762660_at / RFU VCAN (11757783_s_at) / Fold change /veh VCAN (11757783_s_at) / RFU DDX43 (11728927_at) / Fold change /veh DDX43 (11728927_at) / RFU KRT8 (11758188_x_at) / Fold change /veh KRT8 (11758188_x_at) / RFU NKD1 (11759106_at) / Fold change /veh NKD1 (11759106_at) / RFU SRD5A1 (11742802_a_at) / Fold change /veh SRD5A1 (11742802_a_at) / RFU TPSAB1 /// TPSB2 (11721975_s_at) / Fold change /veh TPSAB1 /// TPSB2 (11721975_s_at) / RFU GSTM3 (11746129_a_at) / Fold change /veh GSTM3 (11746129_a_at) / RFU IL23R (11737362_x_at) / Fold change /veh IL23R (11737362_x_at) / RFU TMEM51 (11727254_a_at) / Fold change /veh TMEM51 (11727254_a_at) / RFU PIWIL2 (11732686_x_at) / Fold change /veh PIWIL2 (11732686_x_at) / RFU ORM1 (11744905_x_at) / Fold change /veh ORM1 (11744905_x_at) / RFU CCDC152 (11743942_at) / Fold change /veh CCDC152 (11743942_at) / RFU ECM1 (11717891_a_at) / Fold change /veh ECM1 (11717891_a_at) / RFU IL23R (11748794_a_at) / Fold change /veh IL23R (11748794_a_at) / RFU TNFAIP8L3 (11732012_x_at) / Fold change /veh TNFAIP8L3 (11732012_x_at) / RFU MBOAT4 (11741988_at) / Fold change /veh MBOAT4 (11741988_at) / RFU 11764193_at / Fold change /veh 11764193_at / RFU TMEM53 (11763286_at) / Fold change /veh TMEM53 (11763286_at) / RFU MAGEB2 (11727129_at) / Fold change /veh MAGEB2 (11727129_at) / RFU TMEM200A (11744735_a_at) / Fold change /veh TMEM200A (11744735_a_at) / RFU CCDC152 (11751479_a_at) / Fold change /veh CCDC152 (11751479_a_at) / RFU FAM211A (11726209_a_at) / Fold change /veh FAM211A (11726209_a_at) / RFU RGS16 (11746705_a_at) / Fold change /veh RGS16 (11746705_a_at) / RFU VCAN (11755009_s_at) / Fold change /veh VCAN (11755009_s_at) / RFU RHOB (11743442_s_at) / Fold change /veh RHOB (11743442_s_at) / RFU RGS16 (11720943_a_at) / Fold change /veh RGS16 (11720943_a_at) / RFU RGS16 (11720944_at) / Fold change /veh RGS16 (11720944_at) / RFU, VPS4B / Fold change vs veh, VPS4B / RFU, CREB1 / Fold change vs veh, CREB1 / RFU, DNAJC13 / Fold change vs veh, DNAJC13 / RFU, GNAQ / Fold change vs veh, GNAQ / RFU, CDK5R1 / Fold change vs veh, CDK5R1 / RFU, ZRANB3 / Fold change vs veh, ZRANB3 / RFU, CUL4A / Fold change vs veh, CUL4A / RFU, CCNY / Fold change vs veh, CCNY / RFU, UFL1 / Fold change vs veh, UFL1 / RFU, COG3 / Fold change vs veh, COG3 / RFU, DIAPH2 / Fold change vs veh, DIAPH2 / RFU, SKA2 / Fold change vs veh, SKA2 / RFU, AFF3 / Fold change vs veh, AFF3 / RFU, LMF1 / Fold change vs veh, LMF1 / RFU, IPO11 / Fold change vs veh, IPO11 / RFU, DFFB / Fold change vs veh, DFFB / RFU, FOXP1 / Fold change vs veh, FOXP1 / RFU, CARD8 / Fold change vs veh, CARD8 / RFU, STRN3 / Fold change vs veh, STRN3 / RFU, ADK / Fold change vs veh, ADK / RFU, RASSF2 / Fold change vs veh, RASSF2 / RFU, WIPF1 / Fold change vs veh, WIPF1 / RFU, LARP1B / Fold change vs veh, LARP1B / RFU, RASA1 / Fold change vs veh, RASA1 / RFU, RB1 / Fold change vs veh, RB1 / RFU, PPFIA1 / Fold change vs veh, PPFIA1 / RFU, MAT2A / Fold change vs veh, MAT2A / RFU, CCT5 / Fold change vs veh, CCT5 / RFU, WDR92 / Fold change vs veh, WDR92 / RFU, CUX1 / Fold change vs veh, CUX1 / RFU, TTC7A / Fold change vs veh, TTC7A / RFU, TMEM135 / Fold change vs veh, TMEM135 / RFU, DEPTOR / Fold change vs veh, DEPTOR / RFU, CPM / Fold change vs veh, CPM / RFU, DNAJB6 / Fold change vs veh, DNAJB6 / RFU, CACNA2D3 / Fold change vs veh, CACNA2D3 / RFU, DTX4 / Fold change vs veh, DTX4 / RFU, TFCP2 / Fold change vs veh, TFCP2 / RFU, GMCL1 /// GMCL1P1 / Fold change vs veh, GMCL1 /// GMCL1P1 / RFU, AEBP2 / Fold change vs veh, AEBP2 / RFU, SNHG1 /// SNORD22 /// SNORD25 /// SNORD26 /// SNORD27 /// SNORD28 /// SNORD29 /// SNORD31 / Fold change vs veh, SNHG1 /// SNORD22 /// SNORD25 /// SNORD26 /// SNORD27 /// SNORD28 /// SNORD29 /// SNORD31 / Fold change (Aza/veh), C12orf56 (ProbeSet 11735607_a_at) / Fold change (ACY-1035/veh), C12orf56 (ProbeSet 11735607_a_at) / Fold change (Aza/veh), FGFR1OP (ProbeSet 11751329_s_at) / Fold change (ACY-1035/veh), FGFR1OP (ProbeSet 11751329_s_at) / Fold change (Aza/veh), VPS36 (ProbeSet 11739960_a_at) / Fold change (ACY-1035/veh), VPS36 (ProbeSet 11739960_a_at) / RFU SYPL1 (11715823_x_at) / Fold change /veh SYPL1 (11715823_x_at) / RFU IGFBP7 (11715501_s_at) / Fold change /veh IGFBP7 (11715501_s_at) / RFU REEP3 (11722064_at) / Fold change /veh REEP3 (11722064_at) / RFU IGLL1 (11728026_x_at) / Fold change /veh IGLL1 (11728026_x_at): dose or concentration left out as unconfirmed
Details: MV-4-11 cells, 48 hours

Nc1ccc(-c2cccs2)cc1NC(=O)c1ccc2c(c1)cc(C1CC1)n2CCN1CCOCC1 [ACY-1035]
RFU ACY1 (11761880_at): 20.30 RFU
